Reference: paper PMC5218480 (PLoS ONE, 2017)

System: MV-4-11 cells
Assay: Gene expression microarray analysis (Affymetrix PrimeView) and GSEA
Type: cell-based, human
Set-up: RFU PODN (11730768_x_at) / Fold change /veh PODN (11730768_x_at) / RFU LINC00158 (11744669_a_at) / Fold change /veh LINC00158 (11744669_a_at) / RFU DUSP10 (11751237_a_at) / Fold change /veh DUSP10 (11751237_a_at) / RFU ID3 (11757404_x_at) / Fold change /veh ID3 (11757404_x_at) / RFU PLEKHG5 (11737974_s_at) / Fold change /veh PLEKHG5 (11737974_s_at) / RFU LRRC4B (11730491_at) / Fold change /veh LRRC4B (11730491_at) / RFU GIMAP4 (11747438_a_at) / Fold change /veh GIMAP4 (11747438_a_at) / RFU KRT8 (11758183_x_at) / Fold change /veh KRT8 (11758183_x_at) / RFU CNN1 (11734310_a_at) / Fold change /veh CNN1 (11734310_a_at) / RFU VPS37D (11726825_at) / Fold change /veh VPS37D (11726825_at) / RFU C10orf10 (11716522_x_at) / Fold change /veh C10orf10 (11716522_x_at) / RFU KIR2DL2 /// KIR2DL4 /// KIR2DL5A /// KIR2DL5B /// KIR2DS1 /// KIR2DS2 /// KIR2DS3 /// KIR2DS4 /// KIR3DL3 /// KIR3DL3 /// KIR3DS1 (11738374_at) / Fold change /veh KIR2DL2 /// KIR2DL4 /// KIR2DL5A /// KIR2DL5B /// KIR2DS1 /// KIR2DS2 /// KIR2DS3 /// KIR2DS4 /// KIR3DL3 /// KIR3DL3 /// KIR3DS1 (11738374_at) / RFU C1QL1 (11718748_at) / Fold change /veh C1QL1 (11718748_at) / RFU TMPRSS4 (11747572_a_at) / Fold change /veh TMPRSS4 (11747572_a_at) / RFU HAMP (11756126_x_at) / Fold change /veh HAMP (11756126_x_at) / RFU RNFT2 (11725882_a_at) / Fold change /veh RNFT2 (11725882_a_at) / RFU NR4A2 (11747474_a_at) / Fold change /veh NR4A2 (11747474_a_at) / RFU ABCC12 (11746883_a_at) / Fold change /veh ABCC12 (11746883_a_at) / RFU TMEM136 (11760407_x_at) / Fold change /veh TMEM136 (11760407_x_at) / RFU CLDN22 /// WWC2 (11732394_at) / Fold change /veh CLDN22 /// WWC2 (11732394_at) / RFU HLA-DPB1 (11760878_x_at) / Fold change /veh HLA-DPB1 (11760878_x_at) / RFU SPINT1 (11716480_a_at) / Fold change /veh SPINT1 (11716480_a_at) / RFU GAP43 (11754022_s_at) / Fold change /veh GAP43 (11754022_s_at) / RFU A4GNT (11735810_at) / Fold change /veh A4GNT (11735810_at) / RFU PRB3 (11715151_x_at) / Fold change /veh PRB3 (11715151_x_at) / RFU TUBB4B (11761932_at) / Fold change /veh TUBB4B (11761932_at) / RFU CAPN14 (11732068_a_at) / Fold change /veh CAPN14 (11732068_a_at) / RFU TMCC2 (11721928_a_at) / Fold change /veh TMCC2 (11721928_a_at) / RFU IRGQ (11745062_a_at) / Fold change /veh IRGQ (11745062_a_at) / RFU FAM174B (11720279_a_at) / Fold change /veh FAM174B (11720279_a_at) / RFU TMPRSS4 (11748680_a_at) / Fold change /veh TMPRSS4 (11748680_a_at) / RFU FAM212B (11763350_a_at) / Fold change /veh FAM212B (11763350_a_at) / RFU PLEKHG5 (11743358_a_at) / Fold change /veh PLEKHG5 (11743358_a_at) / RFU ZSCAN30 (11745921_a_at) / Fold change /veh ZSCAN30 (11745921_a_at) / RFU CMKLR1 (11741424_a_at) / Fold change /veh CMKLR1 (11741424_a_at) / RFU LOC101060620 /// MAPK8IP1 (11723275_at) / Fold change /veh LOC101060620 /// MAPK8IP1 (11723275_at) / RFU SPTSSB (11747773_x_at) / Fold change /veh SPTSSB (11747773_x_at) / RFU PRSS12 (11739890_at) / Fold change /veh PRSS12 (11739890_at) / RFU BIN1 (11741810_x_at) / Fold change /veh BIN1 (11741810_x_at) / RFU WNT11 (11732464_a_at) / Fold change /veh WNT11 (11732464_a_at) / RFU C10orf10 (11716521_a_at) / Fold change /veh C10orf10 (11716521_a_at) / RFU C5orf56 (11738089_at) / Fold change /veh C5orf56 (11738089_at) / RFU CYB561 (11721691_x_at) / Fold change /veh CYB561 (11721691_x_at) / RFU ANKRD19P (11752326_a_at) / Fold change /veh ANKRD19P (11752326_a_at) / RFU OR2T12 /// OR2T33 /// OR2T8 (11738714_s_at) / Fold change /veh OR2T12 /// OR2T33 /// OR2T8 (11738714_s_at) / RFU VCAN (11748164_a_at) / Fold change /veh VCAN (11748164_a_at) / RFU JSRP1 (11732532_at) / Fold change /veh JSRP1 (11732532_at) / RFU KRTAP10-11 (11738290_x_at) / Fold change /veh KRTAP10-11 (11738290_x_at) / RFU MYO3A (11730013_a_at) / Fold change /veh MYO3A (11730013_a_at) / RFU EBF3 (11725865_a_at) / Fold change /veh EBF3 (11725865_a_at) / RFU CAMK2N1 (11719241_x_at) / Fold change /veh CAMK2N1 (11719241_x_at) / RFU C5orf56 (11738088_a_at) / Fold change /veh C5orf56 (11738088_a_at) / RFU OLFML3 (11715873_a_at) / Fold change /veh OLFML3 (11715873_a_at) / RFU LOC100653217 /// NTM (11731650_a_at) / Fold change /veh LOC100653217 /// NTM (11731650_a_at) / RFU MAPK11 (11762145_a_at) / Fold change /veh MAPK11 (11762145_a_at) / RFU FIZ1 (11724087_x_at) / Fold change /veh FIZ1 (11724087_x_at) / RFU OASL (11726364_x_at) / Fold change /veh OASL (11726364_x_at) / RFU SOX15 (11748057_x_at) / Fold change /veh SOX15 (11748057_x_at) / RFU CD79A (11719716_a_at) / Fold change /veh CD79A (11719716_a_at) / RFU HIST1H1D (11736915_at) / Fold change /veh HIST1H1D (11736915_at) / RFU CASKIN2 (11723855_a_at) / Fold change /veh CASKIN2 (11723855_a_at) / RFU LOC730098 (11760151_x_at) / Fold change /veh LOC730098 (11760151_x_at) / RFU OR4N2 (11742367_at) / Fold change /veh OR4N2 (11742367_at) / RFU PRRT2 (11749266_a_at) / Fold change /veh PRRT2 (11749266_a_at) / RFU SNX32 (11753110_a_at) / Fold change /veh SNX32 (11753110_a_at) / RFU CDHR5 (11726645_a_at) / Fold change /veh CDHR5 (11726645_a_at) / RFU RCAN1 (11760418_a_at) / Fold change /veh RCAN1 (11760418_a_at) / RFU FAM167A (11723789_a_at) / Fold change /veh FAM167A (11723789_a_at) / RFU FAM26E (11764081_at) / Fold change /veh FAM26E (11764081_at) / RFU ISYNA1 (11749810_s_at) / Fold change /veh ISYNA1 (11749810_s_at) / RFU ACY1 (11761880_at) / Fold change /veh ACY1 (11761880_at) / RFU 11764098_at / Fold change /veh 11764098_at / RFU SAMD14 (11745864_x_at) / Fold change /veh SAMD14 (11745864_x_at) / RFU NPB (11741838_a_at) / Fold change /veh NPB (11741838_a_at) / RFU TMPRSS6 (11731388_a_at) / Fold change /veh TMPRSS6 (11731388_a_at) / RFU KRTAP10-2 (11738614_at) / Fold change /veh KRTAP10-2 (11738614_at) / RFU ARHGAP8 /// PRR5-ARHGAP8 (11727945_x_at) / Fold change /veh ARHGAP8 /// PRR5-ARHGAP8 (11727945_x_at) / RFU KRTAP5-7 /// NADSYN1 (11734609_at) / Fold change /veh KRTAP5-7 /// NADSYN1 (11734609_at) / RFU RASL12 (11751679_a_at) / Fold change /veh RASL12 (11751679_a_at) / RFU CDKN2B (11736163_a_at) / Fold change /veh CDKN2B (11736163_a_at) / RFU PRF1 (11729649_at) / Fold change /veh PRF1 (11729649_at) / RFU, ZNF638 /// ZNF638-IT1 / Fold change vs veh, ZNF638 /// ZNF638-IT1 / RFU, PANK3 / Fold change vs veh, PANK3 / RFU, SH3YL1 / Fold change vs veh, SH3YL1 / RFU, ZEB2 / Fold change vs veh, ZEB2 / RFU, NRIP1 / Fold change vs veh, NRIP1 / RFU, PTTG1IP / Fold change vs veh, PTTG1IP / RFU, CAPN2 / Fold change vs veh, CAPN2 / RFU, MED14 / Fold change vs veh, MED14 / RFU, SNORA58 / Fold change vs veh, SNORA58 / RFU, C1orf63 / Fold change vs veh, C1orf63 / RFU, LRRFIP1 / Fold change vs veh, LRRFIP1 / RFU, NDUFAF7 / Fold change vs veh, NDUFAF7 / RFU, SLC12A2 / Fold change vs veh, SLC12A2 / RFU, IBTK / Fold change vs veh, IBTK / RFU, ESF1 / Fold change vs veh, ESF1 / Fold change vs veh, TMEM50B / RFU, TAOK1 / Fold change vs veh, TAOK1 / RFU, ACBD3 / Fold change vs veh, ACBD3 / RFU, TMA16 / Fold change vs veh, TMA16 / RFU, RWDD3 / Fold change vs veh, RWDD3 / RFU, BCAT1 / Fold change vs veh, BCAT1 / RFU, EDEM3 / Fold change vs veh, EDEM3 / RFU, TMEM33 / Fold change vs veh, TMEM33 / RFU, WDR75 / Fold change vs veh, WDR75 / RFU, AHCTF1 / Fold change vs veh, AHCTF1 / RFU, TFRC / Fold change vs veh, TFRC / RFU, ZDHHC17 / Fold change vs veh, ZDHHC17 / RFU, NOM1 / Fold change vs veh, NOM1 / RFU, ARL8B / Fold change vs veh, ARL8B / RFU, ZBTB11 / Fold change vs veh, ZBTB11 / RFU, TAMM41 / Fold change vs veh, TAMM41 / RFU, KIAA1704 /// LOC100996395 / Fold change vs veh, KIAA1704 /// LOC100996395 / RFU, ING1 / Fold change vs veh, ING1 / RFU, TRMT61B / Fold change vs veh, TRMT61B / RFU, FUBP3 / Fold change vs veh, FUBP3 / RFU, TP53 / Fold change vs veh, TP53 / RFU, TNKS2 / Fold change vs veh, TNKS2 / RFU, ZFP14 / Fold change vs veh, ZFP14 / RFU, ACTR2 / Fold change vs veh, ACTR2 / RFU, PPP3R1 / Fold change vs veh, PPP3R1 / RFU, PIK3R1 / Fold change vs veh, PIK3R1 / RFU, HNRNPA1 / Fold change vs veh, HNRNPA1 / RFU, RNF170 / Fold change vs veh, RNF170 / RFU, ZNF28 / Fold change vs veh, ZNF28 / RFU, RNGTT / Fold change vs veh, RNGTT / RFU, OGT / Fold change vs veh, OGT / RFU, BRD1 / Fold change vs veh, BRD1 / RFU, MARS / Fold change vs veh, MARS / RFU, ZNF655 / Fold change vs veh, ZNF655 / RFU, FAHD1 / Fold change vs veh, FAHD1 / RFU, BDP1 / Fold change vs veh, BDP1 / RFU, LRRCC1 / Fold change vs veh, LRRCC1 / RFU, ARID1A / Fold change vs veh, ARID1A / RFU, ZNF146 / Fold change vs veh, ZNF146 / RFU, ZNF330 / Fold change vs veh, ZNF330 / RFU, GPN3 / Fold change vs veh, GPN3 / RFU, C9orf123 / Fold change vs veh, C9orf123 / RFU, N4BP2L2 / Fold change vs veh, N4BP2L2 / RFU, ARFIP1 / Fold change vs veh, ARFIP1 / RFU, FAM179B / Fold change vs veh, FAM179B / RFU, BCL10 / Fold change vs veh, BCL10 / RFU, UHRF1BP1L / Fold change vs veh, UHRF1BP1L / RFU, BET1 / Fold change vs veh, BET1 / RFU, CNOT2 / Fold change vs veh, CNOT2 / RFU, ZNF268 / Fold change vs veh, ZNF268 / Fold change vs veh, ZNF507 / RFU, DGCR2 / Fold change vs veh, DGCR2 / RFU, WDSUB1 / Fold change vs veh, WDSUB1 / Fold change vs veh, HSP90B1 /// MIR3652 / RFU, ADSS / Fold change vs veh, ADSS / RFU, GK / Fold change vs veh, GK / RFU, ZNF148 / Fold change vs veh, ZNF148 / RFU, TAF9 / Fold change vs veh, TAF9 / RFU, SLC1A5 / Fold change vs veh, SLC1A5 / RFU, SLMO2 / Fold change vs veh, SLMO2 / RFU, ABCC4 / Fold change vs veh, ABCC4 / RFU, LOC101060439 /// RAP1B / Fold change vs veh, LOC101060439 /// RAP1B / RFU, RFX7 / Fold change vs veh, RFX7 / RFU, GTPBP10 / Fold change vs veh, GTPBP10 / RFU, CNEP1R1 / Fold change vs veh, CNEP1R1 / RFU, BIVM-ERCC5 /// ERCC5 / Fold change vs veh, BIVM-ERCC5 /// ERCC5 / RFU, ILF3 / Fold change vs veh, ILF3 / RFU 11762660_at / Fold change /veh 11762660_at / RFU VCAN (11757783_s_at) / Fold change /veh VCAN (11757783_s_at) / RFU DDX43 (11728927_at) / Fold change /veh DDX43 (11728927_at) / RFU KRT8 (11758188_x_at) / Fold change /veh KRT8 (11758188_x_at) / RFU NKD1 (11759106_at) / Fold change /veh NKD1 (11759106_at) / RFU SRD5A1 (11742802_a_at) / Fold change /veh SRD5A1 (11742802_a_at) / RFU TPSAB1 /// TPSB2 (11721975_s_at) / Fold change /veh TPSAB1 /// TPSB2 (11721975_s_at) / RFU GSTM3 (11746129_a_at) / Fold change /veh GSTM3 (11746129_a_at) / RFU IL23R (11737362_x_at) / Fold change /veh IL23R (11737362_x_at) / RFU TMEM51 (11727254_a_at) / Fold change /veh TMEM51 (11727254_a_at) / RFU PIWIL2 (11732686_x_at) / Fold change /veh PIWIL2 (11732686_x_at) / RFU ORM1 (11744905_x_at) / Fold change /veh ORM1 (11744905_x_at) / RFU CCDC152 (11743942_at) / Fold change /veh CCDC152 (11743942_at) / RFU ECM1 (11717891_a_at) / Fold change /veh ECM1 (11717891_a_at) / RFU IL23R (11748794_a_at) / Fold change /veh IL23R (11748794_a_at) / RFU TNFAIP8L3 (11732012_x_at) / Fold change /veh TNFAIP8L3 (11732012_x_at) / RFU MBOAT4 (11741988_at) / Fold change /veh MBOAT4 (11741988_at) / RFU 11764193_at / Fold change /veh 11764193_at / RFU TMEM53 (11763286_at) / Fold change /veh TMEM53 (11763286_at) / RFU MAGEB2 (11727129_at) / Fold change /veh MAGEB2 (11727129_at) / RFU TMEM200A (11744735_a_at) / Fold change /veh TMEM200A (11744735_a_at) / RFU CCDC152 (11751479_a_at) / Fold change /veh CCDC152 (11751479_a_at) / RFU FAM211A (11726209_a_at) / Fold change /veh FAM211A (11726209_a_at) / RFU RGS16 (11746705_a_at) / Fold change /veh RGS16 (11746705_a_at) / RFU VCAN (11755009_s_at) / Fold change /veh VCAN (11755009_s_at) / RFU RHOB (11743442_s_at) / Fold change /veh RHOB (11743442_s_at) / RFU RGS16 (11720943_a_at) / Fold change /veh RGS16 (11720943_a_at) / RFU RGS16 (11720944_at) / Fold change /veh RGS16 (11720944_at) / RFU, VPS4B / Fold change vs veh, VPS4B / RFU, CREB1 / Fold change vs veh, CREB1 / RFU, DNAJC13 / Fold change vs veh, DNAJC13 / RFU, GNAQ / Fold change vs veh, GNAQ / RFU, CDK5R1 / Fold change vs veh, CDK5R1 / RFU, ZRANB3 / Fold change vs veh, ZRANB3 / RFU, CUL4A / Fold change vs veh, CUL4A / RFU, CCNY / Fold change vs veh, CCNY / RFU, UFL1 / Fold change vs veh, UFL1 / RFU, COG3 / Fold change vs veh, COG3 / RFU, DIAPH2 / Fold change vs veh, DIAPH2 / RFU, SKA2 / Fold change vs veh, SKA2 / RFU, AFF3 / Fold change vs veh, AFF3 / RFU, LMF1 / Fold change vs veh, LMF1 / RFU, IPO11 / Fold change vs veh, IPO11 / RFU, DFFB / Fold change vs veh, DFFB / RFU, FOXP1 / Fold change vs veh, FOXP1 / RFU, CARD8 / Fold change vs veh, CARD8 / RFU, STRN3 / Fold change vs veh, STRN3 / RFU, ADK / Fold change vs veh, ADK / RFU, RASSF2 / Fold change vs veh, RASSF2 / RFU, WIPF1 / Fold change vs veh, WIPF1 / RFU, LARP1B / Fold change vs veh, LARP1B / RFU, RASA1 / Fold change vs veh, RASA1 / RFU, RB1 / Fold change vs veh, RB1 / RFU, PPFIA1 / Fold change vs veh, PPFIA1 / RFU, MAT2A / Fold change vs veh, MAT2A / RFU, CCT5 / Fold change vs veh, CCT5 / RFU, WDR92 / Fold change vs veh, WDR92 / RFU, CUX1 / Fold change vs veh, CUX1 / RFU, TTC7A / Fold change vs veh, TTC7A / RFU, TMEM135 / Fold change vs veh, TMEM135 / RFU, DEPTOR / Fold change vs veh, DEPTOR / RFU, CPM / Fold change vs veh, CPM / RFU, DNAJB6 / Fold change vs veh, DNAJB6 / RFU, CACNA2D3 / Fold change vs veh, CACNA2D3 / RFU, DTX4 / Fold change vs veh, DTX4 / RFU, TFCP2 / Fold change vs veh, TFCP2 / RFU, GMCL1 /// GMCL1P1 / Fold change vs veh, GMCL1 /// GMCL1P1 / RFU, AEBP2 / Fold change vs veh, AEBP2 / RFU, SNHG1 /// SNORD22 /// SNORD25 /// SNORD26 /// SNORD27 /// SNORD28 /// SNORD29 /// SNORD31 / Fold change vs veh, SNHG1 /// SNORD22 /// SNORD25 /// SNORD26 /// SNORD27 /// SNORD28 /// SNORD29 /// SNORD31 / Fold change (Aza/veh), C12orf56 (ProbeSet 11735607_a_at) / Fold change (ACY-1035/veh), C12orf56 (ProbeSet 11735607_a_at) / Fold change (Aza/veh), FGFR1OP (ProbeSet 11751329_s_at) / Fold change (ACY-1035/veh), FGFR1OP (ProbeSet 11751329_s_at) / Fold change (Aza/veh), VPS36 (ProbeSet 11739960_a_at) / Fold change (ACY-1035/veh), VPS36 (ProbeSet 11739960_a_at) / RFU SYPL1 (11715823_x_at) / Fold change /veh SYPL1 (11715823_x_at) / RFU IGFBP7 (11715501_s_at) / Fold change /veh IGFBP7 (11715501_s_at) / RFU REEP3 (11722064_at) / Fold change /veh REEP3 (11722064_at) / RFU IGLL1 (11728026_x_at) / Fold change /veh IGLL1 (11728026_x_at): dose or concentration left out as unconfirmed
Details: MV-4-11 cells, 48 hours

SMILES: Nc1ncn([C@@H]2O[C@H](CO)[C@@H](O)[C@H]2O)c(=O)n1 [azacitidine]
- RFU LOC100653217 /// NTM (11731650_a_at): 11.58 RFU
